This is an account of results in patent US10301317B2, “Inhibitors of ERK and methods of use” (Kura Oncology, Inc., priority 2013, dated 2019).

For the first assay, the system named is phospho-p90 RSK (RSK1 Thr359/Ser363) in A375 (Braf V600E) cells. Kind of assay: Phospho-p90 RSK ELISA using A375 (Braf V600E) cells. It is filed as cell-based. To be noted: Homo sapiens, A-375, 2 hours compound treatment, read-out: Cellular Phospho-p90RSK IC50.
Take `Cc1cc(-c2n[nH]c3cc4c(cc23)CN(CC2CCCCC2)C(=O)N4)ccn1` [Example 213]: the IC50 is at most 250 nM.

As to `Cc1cc(-c2n[nH]c3cc4c(cc23)CN([C@@H]2CCCN(C(C)C(F)(F)F)C2)C(=O)N4)ccn1` (stereo partly shown) [Example 216], the IC50 was at most 250 nM.

As for `Cc1cc(-c2n[nH]c3cc4c(cc23)CN(C2CCC(F)(F)CC2)C(=O)N4)ccn1` [Example 224], the IC50 is at most 250 nM.

As for `Cc1cc(-c2n[nH]c3cc4c(cc23)CN(Cc2cc(F)cc(F)c2)C(=O)N4)cc(C)n1` [Example 225], the IC50 is at most 250 nM.

On to `Cc1cc(-c2n[nH]c3cc4c(cc23)CN(Cc2ccc(F)c(Cl)c2)C(=O)N4)cc(C)n1` [Example 226], for which the IC50 is at most 250 nM.

Take `Cc1cc(-c2n[nH]c3cc4c(cc23)CN(Cc2cccs2)C(=O)N4)cc(C)n1` [Example 227]: the IC50 was at most 250 nM.

Turning to `Cc1cc(-c2n[nH]c3cc4c(cc23)CN(Cc2nc(C)c(C)s2)C(=O)N4)ccn1` [Example 228], the IC50 was at most 250 nM.

Regarding `Cc1cc(-c2n[nH]c3cc4c(cc23)CN(Cc2ccccc2)C(=O)N4)cc(C)n1` [Example 229], the IC50 was at most 250 nM.

For `O=C1Nc2cc3[nH]nc(-c4ccc(N5CCOCC5)nc4)c3cc2CN1Cc1cccc(Cl)c1` [Example 231], the IC50 was at most 250 nM.

For `Cc1cc(-c2n[nH]c3cc4c(cc23)CN(C(C)c2nccs2)C(=O)N4)ccn1` (stereo not shown) [Example 234], the IC50 is at most 250 nM.

As to `Cc1cc(-c2n[nH]c3cc4c(cc23)CN([C@@H]2CCN(CC(F)(F)F)C2)C(=O)N4)cc(C)n1` [Example 237], the IC50 is at most 250 nM.

On to `Cc1cc(-c2n[nH]c3cc4c(cc23)CN(C2CCCC2)C(=O)N4)cc(C)n1` [Example 239], for which the IC50 is at most 250 nM.

`Cc1cc(-c2n[nH]c3cc4c(cc23)CN(Cc2cccc(C(F)(F)F)c2)C(=O)N4)ccn1` [Example 240]: the IC50 was at most 250 nM.

`Cc1cc(-c2n[nH]c3cc4c(cc23)CN([C@@H]2CN(CC(F)(F)F)C[C@H]2c2ccccc2)C(=O)N4)cc(C)n1` [Example 242]: the IC50 was at most 250 nM.

As to `Cc1cc(-c2n[nH]c3cc4c(cc23)CN(C2CCC2)C(=O)N4)ccn1` [Example 243], the IC50 was at most 250 nM.

`Cc1cc(-c2n[nH]c3cc4c(cc23)CN([C@@H]2CCCN(CC(F)(F)F)C2)C(=O)N4)cc(C)n1` [Example 244]: the IC50 was at most 250 nM.

Regarding `Cc1cc(-c2n[nH]c3cc4c(cc23)CN([C@@H]2CCCN(Cc3ccc(C)s3)C2)C(=O)N4)ccn1` [Example 245], the IC50 was at most 250 nM.

As to `Cc1cc(-c2n[nH]c3cc4c(cc23)CN([C@@H]2CCCN(Cc3csc(C)c3)C2)C(=O)N4)ccn1` [Example 251], the IC50 is at most 250 nM.

As to `Cc1cc(-c2n[nH]c3cc4c(cc23)CN([C@@H]2CCCN(Cc3ccsc3)C2)C(=O)N4)ccn1` [Example 252], the IC50 was at most 250 nM.

As to `Cc1cc(-c2n[nH]c3cc4c(cc23)CN([C@@H]2CCCN(Cc3cccs3)C2)C(=O)N4)ccn1` [Example 254], the IC50 is at most 250 nM.

For `COc1cc(-c2n[nH]c3cc4[nH]c(=O)c(C5CCCN(Cc6ccccc6)C5)cc4cc23)ccn1` (stereo not shown) [Example 370], the IC50 was at most 250 nM.

On to `Cc1cc(-c2n[nH]c3cc4c(cc23)CN(Cc2ccccc2)C(=O)N4)ccn1` [Example 372], for which the IC50 was at most 250 nM.

For `Cc1ccc(-c2n[nH]c3cc4[nH]c(=O)c(C5CCCN(Cc6ccccc6)C5)cc4cc23)cn1` (stereo not shown) [Example 373], the IC50 lay in the range of 250 to 1000 nM.

Consider `Cc1cc(-c2n[nH]c3cc4c(cc23)CN([C@H]2CN(CC(F)F)C[C@@H]2c2ccccc2)C(=O)N4)ccn1` [Example 383], for which the IC50 is above 1000 nM.

As to `Cc1cc(-c2n[nH]c3cc4c(cc23)CN([C@H]2CN(CC(F)F)C[C@@H]2c2ccccc2)C(=O)N4)cc(C)n1` [Example 385], the IC50 was above 1000 nM.

In the case of `Cc1cc(-c2n[nH]c3cc4c(cc23)CN([C@@H]2CN(CC(F)F)C[C@H]2c2ccccc2)C(=O)N4)cc(C)n1` [Example 386], the IC50 is at most 250 nM.

For the next assay, the system named is A375 cells. The assay is described as follows: Tumor cell line proliferation assay (CellTiter Glo), A375. It counts as cell-based. Conditions: Homo sapiens, A-375, 96 h, read-out: A375 (V599E) Cell Proliferation IC50.
Consider `Cc1cc(-c2n[nH]c3cc4c(cc23)CN(CC2CCCCC2)C(=O)N4)ccn1` [Example 213], for which the IC50 was at most 250 nM.

Take `Cc1cc(-c2n[nH]c3cc4c(cc23)CN([C@@H]2CCCN(C(C)C(F)(F)F)C2)C(=O)N4)ccn1` (stereo partly shown) [Example 216]: the IC50 is 250 to 1000 nM.

On to `Cc1cc(-c2n[nH]c3cc4c(cc23)CN(C2CCC(F)(F)CC2)C(=O)N4)ccn1` [Example 224], for which the IC50 fell in the range of 250 to 1000 nM.

As to `Cc1cc(-c2n[nH]c3cc4c(cc23)CN(Cc2cc(F)cc(F)c2)C(=O)N4)cc(C)n1` [Example 225], the IC50 is at most 250 nM.

As for `Cc1cc(-c2n[nH]c3cc4c(cc23)CN(Cc2ccc(F)c(Cl)c2)C(=O)N4)cc(C)n1` [Example 226], the IC50 was in the range of 250 to 1000 nM.

On to `Cc1cc(-c2n[nH]c3cc4c(cc23)CN(Cc2cccs2)C(=O)N4)cc(C)n1` [Example 227], for which the IC50 fell in the range of 250 to 1000 nM.

With `Cc1cc(-c2n[nH]c3cc4c(cc23)CN(Cc2nc(C)c(C)s2)C(=O)N4)ccn1` [Example 228], the IC50 lay within 250 to 1000 nM.

As to `Cc1cc(-c2n[nH]c3cc4c(cc23)CN(Cc2ccccc2)C(=O)N4)cc(C)n1` [Example 229], the IC50 is 250 to 1000 nM.

For the molecule `O=C1Nc2cc3[nH]nc(-c4ccc(N5CCOCC5)nc4)c3cc2CN1Cc1cccc(Cl)c1` [Example 231], the IC50 was in the range of 250 to 1000 nM.

Take `Cc1cc(-c2n[nH]c3cc4c(cc23)CN(C(C)c2nccs2)C(=O)N4)ccn1` (stereo not shown) [Example 234]: the IC50 was in the range of 250 to 1000 nM.

In the case of `Cc1cc(-c2n[nH]c3cc4c(cc23)CN([C@@H]2CCN(CC(F)(F)F)C2)C(=O)N4)cc(C)n1` [Example 237], the IC50 was at most 250 nM.

With `Cc1cc(-c2n[nH]c3cc4c(cc23)CN(C2CCCC2)C(=O)N4)cc(C)n1` [Example 239], the IC50 was at most 250 nM.

On to `Cc1cc(-c2n[nH]c3cc4c(cc23)CN(Cc2cccc(C(F)(F)F)c2)C(=O)N4)ccn1` [Example 240], for which the IC50 was at most 250 nM.

In the case of `Cc1cc(-c2n[nH]c3cc4c(cc23)CN([C@@H]2CN(CC(F)(F)F)C[C@H]2c2ccccc2)C(=O)N4)cc(C)n1` [Example 242], the IC50 fell in the range of 250 to 1000 nM.

On to `Cc1cc(-c2n[nH]c3cc4c(cc23)CN(C2CCC2)C(=O)N4)ccn1` [Example 243], for which the IC50 is at most 250 nM.

Regarding `Cc1cc(-c2n[nH]c3cc4c(cc23)CN([C@@H]2CCCN(CC(F)(F)F)C2)C(=O)N4)cc(C)n1` [Example 244], the IC50 was at most 250 nM.

With `Cc1cc(-c2n[nH]c3cc4c(cc23)CN([C@@H]2CCCN(Cc3ccc(C)s3)C2)C(=O)N4)ccn1` [Example 245], the IC50 was at most 250 nM.

`Cc1cc(-c2n[nH]c3cc4c(cc23)CN([C@@H]2CCCN(Cc3csc(C)c3)C2)C(=O)N4)ccn1` [Example 251]: the IC50 is at most 250 nM.

As to `Cc1cc(-c2n[nH]c3cc4c(cc23)CN([C@@H]2CCCN(Cc3ccsc3)C2)C(=O)N4)ccn1` [Example 252], the IC50 was at most 250 nM.

Regarding `Cc1cc(-c2n[nH]c3cc4c(cc23)CN([C@@H]2CCCN(Cc3cccs3)C2)C(=O)N4)ccn1` [Example 254], the IC50 is at most 250 nM.
